# Patent US20250177384A1, “CHROMANOL COMPOUNDS FOR TREATMENT OR PROPHYLAXIS OF AGEING-ASSOCIATED DISORDERS” (Sulfateq B.V., priority 2022, published 2025)
# How the values were obtained:
# [1] = system: accelerated aging animal models; conditions: chronic treatment; cited from earlier work
# W1118 flies = experiment: Drosophila lifespan with compound added to the food; format: in vivo; conditions: for survival of flies versus controls: higher doses of 10, 100, 1000 μM in food, from larvae state until death, FIG. 1, FIG. 2; for lifespan of Drosophila: treatment via food
# Procedure: […] flies were bred and housed at 25° C. with a 12 h:12 h light/dark-cycle. Flies were kept in vials containing approximately 5 mL of Bloomington food consisting of sucrose, yeast suspension, agar, […] and fresh yeast. Flies kept as a stock were flipped to fresh vials weekly. Food was stored at 18° C. and warmed at room temperature before use. SUL109 and SUL121 were used to assess the effect of chromanol compounds on the lifespan of the fly stocks. The compounds were independently tested. Either SUL109 or SUL121 were added to the food to a final concentration of 10 μM, 100 μM and 1000 μM. […] flies were anesthetized in small groups using CO2. Subsequently, flies were collected at a density of […] per tube. At day 10 and 11 eclosing adults were anesthetized and housed at a density of 20 males and females per tube. Ten vials were used per study condition (total of 100 males and 100 females). During the lifespan, flies were transferred onto new vials containing fresh food 3 times a week, and the number and sex of dead flies was recorded.
# Ercc1−/− (EC-KO) mice [2] = experiment: Endothelium-dependent relaxation of thoracic aorta segments (wire-myograph) after chronic treatment; format: in vivo
# Procedure: (§1) EC-KO mice and corresponding littermates (LM) received either SUL138 treated (30 mg SUL138/kg BW/day) or vehicle treated (0.015% [v/v] ethanol) chow for 8 weeks (14-22 weeks of age).
# (§2) Segments of thoracic aorta were isolated and mounted in wire-myograph containing Krebs Henseleit buffer (at 37° C., oxygenated with 95% O2 and 5% CO2) to assess endothelium-dependent (ED) relaxation.
# Contraction of the thoracic aorta isolates was induced with 100 mM KCl (final concentration) to evaluate vessel viability.
# (§3) A stable synthetic analog of the endoperoxide prostaglandin PGH2, namely U46619, was used for pre-constriction. Thoracic aorta segments were washed and subsequently pre-constricted with U46619 (30-60 nM final concentration; 75-100% of the response to 100 mM KCl), followed by a dose response curve with ED vasodilator acetylcholine (ACh) (10^−9-10^−5 M final concentration).
# To evaluate the contribution of different pathways to vasodilator response, segments were incubated with inhibitors for 15 minutes prior to pre-constriction with U46619. L-NAME (10^−4 M) was added to assess nitric oxide (NO) contribution to vasodilator response. L-NAME, apamin (100 nM) and TRAM-34 (10 μM) were added to assess ED hyperpolarization factor (EDHF) contribution to vasodilator response.
# [3] = system: thoracic aorta segments of EC-KO mice; experiment: Acute effect on endothelium-dependent relaxation (pre-incubation of aorta segments); conditions: pre-incubation 100 μM for 30 minutes
# Procedure: as §2, §3
# The acute effect of SUL138 was evaluated by pre-incubating with 100 μM for 30 minutes.
# Ercc1−/− (EC-KO) mice [4] = experiment: Renal function: urine creatinine, urine albumin, plasma creatinine after chronic treatment; format: in vivo
# Procedure: as §1
# At the age of 21 weeks, animals were put in metabolic cages. After 10 h of acclimatization, 24 h urine was collected. At the age of 22 weeks, mice were euthanized, urine, blood plasma and tissue were collected.
# […] levels in urine were measured in the samples collected at the age of 21 weeks and at the time euthanasia (22 weeks). QuantiChrom Creatinine Assay Kit (1:2 sample dilution) was used according to manufacturer's instructions.
# Albumin levels in urine were measured in the samples collected at the time euthanasia (22 weeks). Mouse albumin ELISA kit ab108792 (1:400 sample dilution) was used according to manufacturer's instructions.
# Blood plasma creatinine was measured in the samples collected at the time euthanasia (22 weeks). […]. QuantiChrom Creatinine Assay Kit […] was used according to manufacturer's instructions.
# [5] = system: Ercc1-deficient mouse models; experiment: Persistent DNA damage in Ercc1-deficient mouse models; format: in vivo; conditions: no method or data given
compound,measurement,setting,value
CCCc1nn(C)c2c(=O)[nH]c(-c3cc(S(=O)(=O)N4CCN(C)CC4)ccc3OCC)nc12 [sildenafil],endothelial dependent relaxation / vasomotor (vasodilator) function,[1],not able to improve endothelial dependent relaxation
"Cc1c(C)c2c(c(C)c1O)CCC(C)(C(=O)N1CCN(CCO)CC1)O2 (stereo not drawn) [SUL109, (6-hydroxy-2,5,7,8-tetramethylchroman-2-yl)(4-(2-hydroxyethyl)piperazin-1-yl)methanone]",survival of flies versus controls,W1118 flies,better survival than the controls
same,lifespan of Drosophila,W1118 flies,increased lifespan
"Cc1c(C)c2c(c(C)c1O)CCC(C)(C(=O)N1CCNCC1)O2 (stereo not drawn) [SUL121, (6-hydroxy-2,5,7,8-tetramethylchroman-2yl)(piperazin-1-yl)methanone]",survival of flies versus controls,W1118 flies,better survival than the controls
same,lifespan of Drosophila,W1118 flies,increased lifespan
CCCCc1nc(Cl)c(CO)n1Cc1ccc(-c2ccccc2-c2nn[nH]n2)cc1 [losartan],endothelial dependent relaxation / vasomotor (vasodilator) function,[1],did not have a beneficial effect
"Cc1c(C)c2c(c(C)c1O)CC[C@@](C)(C(=O)N1CCN(CCO)CC1)O2 [SUL138, S-(6-hydroxy-2,5,7,8-tetramethylchroman-2-yl)(4-(2-hydroxyethyl)piperazin-1-yl)methanone]",ED relaxation (acetylcholine response after U46619 pre-constriction),"Ercc1−/− (EC-KO) mice [2]; chronic treatment 30 mg/kg BW/day in chow for 8 weeks, EC-KO mice, compared to LM control levels, FIG. 3",restored ED relaxation
same,pathway contribution to ACh response (EDHF-driven ED relaxation),"Ercc1−/− (EC-KO) mice [2]; chronic treatment, EC-KO mice, L-NAME curve, FIG. 6",increased EDHF-driven ED relaxation
same,vascular function (summary),"Ercc1−/− (EC-KO) mice [2]; chronic treatment, isolated tissue from Ercc1-deficient mouse models",full preservation of vascular function through EDHF rescue
same,ED relaxation after acute treatment,[3],no effect on ED relaxation
same,albumin/creatinine ratio in urine,"Ercc1−/− (EC-KO) mice [4]; EC-KO mice, 22 weeks, FIG. 8",significant improvement of albumin/creatinine ratios
same,creatinine filtration (creatinine in 24 h urine),"Ercc1−/− (EC-KO) mice [4]; EC-KO mice, 24 h urine at 21 weeks, FIG. 10",significantly improved
same,creatinine filtration (urine creatinine),"Ercc1−/− (EC-KO) mice [4]; EC-KO mice, urine at 22 weeks, FIG. 7",significantly improved creatinine filtration
same,renal function (summary),Ercc1−/− (EC-KO) mice [4]; Ercc1-deficient mouse models,protection of renal function
same,accumulation of persistent DNA damage,[5],attenuation of the accumulation of persistent DNA damage
